“And” between values parts separate entries of the source, which are not always exact repeats. Equal values may be shown once.
Key:
[1] = Pharmacokinetic study for PTG-630 (IV and PO): plasma, whole blood, tissues, urine; type: in vivo, Sprague Dawley rats; details: for PTG-4997 (metabolite) concentration: Table 2, for PTG-4997 (metabolite) after PTG-630 PO 100 mg/kg
Description: The samples were analyzed in two batches with standards and QCs prepared on rat plasma and rat urine. Analyst® 1.6 (SCIEX) software was used for statistical analysis of bioanalytical data. […] Dose samples collected at 0.083 h-6 h postdose were diluted 4 times with SD rat plasma prior to plating. Twenty-four (24) hours plasma samples were assayed without dilution. […] Two sciatic nerve samples were excluded from analysis, due to the insufficient sample size. […] The 12 non-cannulated animals were arbitrarily assigned to groups upon arrival and housed together throughout the experiment. The animals were acclimated to their designated housing for at least 24 hours before the first day of dosing. […] Blood samples were collected via cannula from IV dosed rats or by cardiac stick from PO dosed rats at the specified time points for sampling pharmacokinetics. Blood was collected into K2EDTA tubes. Tubes were mixed gently after blood collection, chilled and centrifuged at 3000 rpm, 4° C. within 30 minutes upon collection. The samples were centrifuged at 4° C. and the resultant plasma separated. […] Urine from Group 1 was collected via polycarbonate tubes from rats placed in drug metabolism cages. Urine was maintained and room temperature through the collection period.

CYP3A = type: in vitro ADME, human; details: HLM
Excerpt: Compound 5 (PTG-630 free base) and 7 additional compounds for CYP3A P450 inhibition.
Imidazole (and benzimidazole) containing drugs are ubiquitous in pharmacological practice; however, drug-drug interactions (DDI) have been observed with some imidazole-containing classes, such as the antifungal azoles typified by ketoconazole. It is believed that the imidazole moiety accounts for their ability to inhibit CYP3A, the major DDI enzyme that metabolizes up to 50% of common drugs. The compounds of the disclosure incorporate an imidazole moiety attached to a pyridine ring via the imidazole C-2. They all share an imidazo-hydroxypyridine theme that can bind redox metal ions, while differing in the nature of the X side-chain. The potential of the compounds of the disclosure for DDI was evaluated by screening their inhibition of CYP3A.
Two studies were conducted in human liver microsomes (HLM). Lead candidate PTG-630 was tested using the Eurofins G232 panel (Drug Metab Dispos. 2001 January; 29(1):23-9), where inhibition was measured against seven CYP enzymes; CYP3A4 was tested using two different substrates, midazolam and testosterone. In a second study, inhibition of CYP3A4 (midazolam substrate only) was compared for 8 compounds of interest. The test protocol involved one-point measurements in duplicate, where inhibition was measured at a fixed 10 μM concentration of candidate inhibitors. In all cases, the substrate for each CYP enzyme was at a concentration equal to its specific Km value that was independently obtained from an 8-point dose-response study. Based on the observed value for percent inhibition for each test compound, we calculated of an IC50 assuming a competitive mode of inhibition. If percent inhibition for an inhibitor at a concentration of [I] is denoted by P, then: IC50=[I]*(100−P)/P In the single-point assay, [I] is 10 μM. If measured inhibition is 10%, then IC50=10*(100-10)/10=90 μM. […] As discussed in Lin et al. (J Pharm Sci. 2007 September; 96(9):2485-93; doi: 10.1002/jps.20884), CYP inhibition is broadly interpreted as being “potent” if IC50<1 μM, “moderate” if 1 μM<IC50<10 μM, and “weak” if IC50>10 μM.

Cc1ncc(CO)c(-c2ncc[nH]2)c1O [PTG-4997]
PTG-4997 (metabolite) concentration ([1]; muscle, 2 h postdose, Mean): <BLQ | PTG-4997 (metabolite) concentration ([1]; muscle, 2 h postdose, individual animals): <BLQ | PTG-4997 (metabolite) concentration ([1]; muscle, 4 h postdose, Mean): 54 ng/mL | PTG-4997 (metabolite) concentration ([1]; muscle, 4 h postdose, individual animals, 100 mg/kg): 108 ng/mL and <BLQ | PTG-4997 (metabolite) concentration ([1]; muscle, 6 h postdose, Mean): 127.5 ng/mL | PTG-4997 (metabolite) concentration ([1]; muscle, 6 h postdose, individual animals, 100 mg/kg): 108 ng/mL and 147 ng/mL | PTG-4997 (metabolite) concentration ([1]; muscle, 24 h postdose, Mean): <BLQ | PTG-4997 (metabolite) concentration ([1]; muscle, 24 h postdose, individual animals): <BLQ | PTG-4997 (metabolite) concentration ([1]; plasma, 0.5 h postdose, Mean): <BLQ | PTG-4997 (metabolite) concentration ([1]; plasma, 0.5 h postdose, individual animals): <BLQ | PTG-4997 (metabolite) concentration ([1]; plasma, 1 h postdose, Mean): <BLQ | PTG-4997 (metabolite) concentration ([1]; plasma, 1 h postdose, individual animals): <BLQ | PTG-4997 (metabolite) concentration ([1]; plasma, 2 h postdose, Mean): <BLQ | PTG-4997 (metabolite) concentration ([1]; plasma, 2 h postdose, individual animals): <BLQ | PTG-4997 (metabolite) concentration ([1]; plasma, 4 h postdose, Mean): <BLQ | PTG-4997 (metabolite) concentration ([1]; plasma, 4 h postdose, individual animals): <BLQ | PTG-4997 (metabolite) concentration ([1]; plasma, 6 h postdose, Mean): <BLQ | PTG-4997 (metabolite) concentration ([1]; plasma, 6 h postdose, individual animals): <BLQ | PTG-4997 (metabolite) concentration ([1]; plasma, 24 h postdose, Mean): <BLQ | PTG-4997 (metabolite) concentration ([1]; plasma, 24 h postdose, individual animals): <BLQ | PTG-4997 (metabolite) concentration ([1]; sciatic nerve, 0.5 h postdose, Mean): <BLQ | PTG-4997 (metabolite) concentration ([1]; sciatic nerve, 0.5 h postdose, individual animals): <BLQ | PTG-4997 (metabolite) concentration ([1]; sciatic nerve, 1 h postdose, Mean): <BLQ | PTG-4997 (metabolite) concentration ([1]; sciatic nerve, 1 h postdose, individual animals): <BLQ | PTG-4997 (metabolite) concentration ([1]; sciatic nerve, 2 h postdose, Mean): <BLQ | PTG-4997 (metabolite) concentration ([1]; sciatic nerve, 2 h postdose, individual animals): <BLQ | PTG-4997 (metabolite) concentration ([1]; sciatic nerve, 4 h postdose, Mean): <BLQ | PTG-4997 (metabolite) concentration ([1]; sciatic nerve, 4 h postdose, individual animals): <BLQ | PTG-4997 (metabolite) concentration ([1]; sciatic nerve, 6 h postdose, Mean): <BLQ | PTG-4997 (metabolite) concentration ([1]; sciatic nerve, 6 h postdose, individual animals): <BLQ | PTG-4997 (metabolite) concentration ([1]; sciatic nerve, 24 h postdose, Mean): <BLQ | PTG-4997 (metabolite) concentration ([1]; sciatic nerve, 24 h postdose, individual animals): <BLQ | AUC last in kidney, times lower than PTG-630 in kidneys ([1]; after PTG-630 PO): 3 times | detection in plasma following IV dosing ([1]; metabolite PTG-4997 after PTG-630 IV): only detected in the plasma of single animal | presence in kidney ([1]; metabolite PTG-4997 after PTG-630 PO): present in steady level for 24 hours | presence in muscle samples ([1]; metabolite PTG-4997 after PTG-630 PO, 4-6 hours postdose): intermittently present | detection in plasma following PO administration ([1]; metabolite PTG-4997 after PTG-630 PO, any timepoint): not detectable | presence in liver samples ([1]; metabolite PTG-4997 after PTG-630 PO, any timepoint through 24 hours postdose): undetectable | average amount recovered from each animal ([1]; urine, 24 hours, after PTG-630 IV): 146 ng | excretion rate, times lower than PTG-630 ([1]; urine, after PTG-630 IV): 34 times | Estimated IC50 (CYP3A; midazolam, from one-point % inhibition at 10 μM, IC50=[I]*(100−P)/P): — None | P % inhib (CYP3A; substrate midazolam at Km, Inhib Conc. 1.0E−05 M): −4.9%

From patent publication US12139472B2, “Inhibitors of advanced glycation end products” (priority 2019, dated 2024)
